Assay results as given in patent publication US20140051679A1, “KINASE INHIBITORS AND METHOD OF TREATING CANCER WITH SAME” (UNIVERISTY HEALTH NETWORKS, priority 2011, published 2014).

Legend:
human TTK = biological target: T1, human TTK (Homo sapiens, UniProt P33981); assay: TTK inhibition assay (indirect ELISA); type: biochemical; details: GST-TTK 0.68 nM, 16 μM ATP; read-out: IC50 Ranges TTK
T1 construct: amino terminal GST fusion of full length human TTK; purchased Invitrogen
T1 sequence (P33981 1-857): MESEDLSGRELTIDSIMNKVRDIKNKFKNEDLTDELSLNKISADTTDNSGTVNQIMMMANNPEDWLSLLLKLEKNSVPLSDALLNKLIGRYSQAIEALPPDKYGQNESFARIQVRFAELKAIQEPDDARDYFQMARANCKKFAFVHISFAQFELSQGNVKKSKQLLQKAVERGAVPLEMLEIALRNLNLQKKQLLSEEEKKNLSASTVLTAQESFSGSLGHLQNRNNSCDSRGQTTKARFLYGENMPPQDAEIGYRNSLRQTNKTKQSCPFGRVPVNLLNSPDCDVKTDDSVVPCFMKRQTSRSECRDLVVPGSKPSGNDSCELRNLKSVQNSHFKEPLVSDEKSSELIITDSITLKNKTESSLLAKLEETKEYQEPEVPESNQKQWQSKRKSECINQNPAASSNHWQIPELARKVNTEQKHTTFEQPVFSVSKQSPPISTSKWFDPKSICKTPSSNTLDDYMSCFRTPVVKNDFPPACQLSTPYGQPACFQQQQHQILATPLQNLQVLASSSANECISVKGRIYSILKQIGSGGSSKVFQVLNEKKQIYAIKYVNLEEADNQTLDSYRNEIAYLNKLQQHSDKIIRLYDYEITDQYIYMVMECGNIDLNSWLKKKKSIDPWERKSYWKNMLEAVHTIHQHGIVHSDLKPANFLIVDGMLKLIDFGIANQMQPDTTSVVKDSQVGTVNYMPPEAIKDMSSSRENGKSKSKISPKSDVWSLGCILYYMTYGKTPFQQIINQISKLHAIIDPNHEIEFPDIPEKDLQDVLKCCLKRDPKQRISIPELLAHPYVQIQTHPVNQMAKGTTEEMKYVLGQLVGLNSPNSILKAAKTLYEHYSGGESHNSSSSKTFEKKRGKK

human PLK4 = biological target: T2, human PLK4 (Homo sapiens, UniProt O00444); assay: PLK4 inhibition assay (indirect ELISA); type: biochemical; details: GST-PLK4 4 nM, 15 μM ATP; read-out: IC50 Ranges PLK4
T2 construct: amino terminal GST fusion of residues 1-391 of human PLK4; made in house; host or cells: E. coli
T2 sequence (O00444 1-391): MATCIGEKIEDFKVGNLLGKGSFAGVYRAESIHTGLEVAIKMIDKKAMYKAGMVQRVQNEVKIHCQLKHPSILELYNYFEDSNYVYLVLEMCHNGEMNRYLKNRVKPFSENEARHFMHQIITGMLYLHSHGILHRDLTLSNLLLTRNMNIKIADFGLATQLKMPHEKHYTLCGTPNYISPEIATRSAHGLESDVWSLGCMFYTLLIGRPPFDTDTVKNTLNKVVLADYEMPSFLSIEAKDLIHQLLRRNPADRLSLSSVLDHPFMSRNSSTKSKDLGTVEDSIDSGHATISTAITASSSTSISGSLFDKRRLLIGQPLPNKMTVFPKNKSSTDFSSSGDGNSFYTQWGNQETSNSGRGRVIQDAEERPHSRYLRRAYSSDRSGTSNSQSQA
In short: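 Dephosphorylated GST-tagged human PLK4 (residues 1-391, E. coli), 4 nM, preincubated 15 min with compound, then reacted 30 min with 15 μM ATP on MBP-coated plates (50 mM HEPES pH 7.5, 10 mM MgCl2, 0.01% Brij 35). Phospho-MBP detected by antibody ELISA at 450 nm. Tested at 10 μM or 10-point titrations; IC50 from 4-parameter logistic fit.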

Aurora B = biological target: T3, Aurora B (Homo sapiens, UniProt Q96GD4); assay: Aurora B inhibition assay (Z-Lyte); type: biochemical; details: 28 nM Aurora B, 128 μM ATP; read-out: IC50 Ranges Aurora B
T3 construct: purchased Invitrogen PV3970
Protocol: Aurora B inhibition was determined using the Z-Lyte assay kit from Invitrogen. The assay was performed using the recommended manufacturer's instructions with 128 μM ATP and 28 nM Aurora B (Invitrogen cat #PV3970). The % inhibition values were determined according to the manufacturer's directions and IC50 values were obtained using a non-linear 4 point logistic curve fit (XLfit4, IDBS)

[1] = system: MDA-MB-231 breast cancer cells; assay: Cell growth inhibition, Sulforhodamine B assay, MDA-MB-231; type: cell-based; details: Homo sapiens, 120 h, 5 days culture, SRB assay, read-out: Cell Line GI50 Range MDA-MB-231
[2] = system: MDA-MB-468 breast cancer cells; assay: Cell growth inhibition, Sulforhodamine B assay, MDA-MB-468; type: cell-based; details: Homo sapiens, 120 h, 5 days culture, SRB assay, read-out: Cell Line GI50 Range MDA-MB-468
Protocol: (§1) Breast cancer cells (MDA-MB-231, MDA-MB-468), colon cancer cells (HCT116, HT29) and ovarian cancer cells (PA-1, OVCAR-3) were seeded (1000 to 4000 in 80 μl per well depending on the cell growth rate) into 96 well plates 24 hours before compound overlay. Compounds were prepared as 10 mM stock solutions in 100% DMSO which were diluted with DMEM (Dulbecco's Modified Eagle's Medium) cell growth Medium (Invitrogen, Burlington, ON, Canada) containing 10% FBS (Fetal Bovine Serum) to concentrations ranging from 50 nM to 250 μM. Aliquots (20 μl) from each concentration were overlaid to 80 μl of the pre-seeded cells in the 96 well plates to make final concentrations of 10 nM to 50 μM. The cells were cultured for 5 days before the Sulforhodamine B assay (SRB) was performed to determine the compound's cell growth inhibition activity.
(§2) Sulforhodamine B (purchased from Sigma, Oakville, ON, Canada) is a water-soluble dye that binds to the basic amino acids of the cellular proteins. Thus, colorimetric measurement of the bound dye provides an estimate of the total protein mass that is related to the cell number. the cells are fixed in situ by gently aspirating off the culture media and adding 50 μl ice cold 10% Trichloroacetic Acid (TCA) per well and incubate at 4° C. for 30-60 min, The plates are washed with water five times and allowed to air dry for 5 min. Addition of 50 μl 0.4% (w/v) SRB solution in 1% (v/v) acetic acid to each well and incubatation for 30 min at RT completes the staining reaction. Following staining, plates are washed four times with 1% acetic acid to remove unbound dye and then allowed to air dry for 5 min. The stain is solubilized with 100 μl of 10 mM Tris pH 10.5 per well. Absorbance is read at 570 nm.
(§3) The percentage (%) of relative growth inhibition was calculated by comparing to DMSO treated only cells (100%). […] The GI50 was calculated using GraphPad PRISM software (GraphPad Software, Inc., San Diego, Calif., USA).

[3] = system: HCT116 colon cancer cells; assay: Cell growth inhibition, Sulforhodamine B assay, HCT116; type: cell-based; details: Homo sapiens, HCT-116, 120 h, 5 days culture, SRB assay, read-out: Cell Line GI50 Range HCT116
HT29 colon cancer cells = assay: Cell growth inhibition, Sulforhodamine B assay, HT29; type: cell-based; details: Homo sapiens, HT-29, 120 h, 5 days culture, SRB assay, read-out: Cell Line GI50 Range HT29
Protocol: as §1, §2, §3

[4] = system: OVCAR-3 ovarian cancer cells; assay: Cell growth inhibition, Sulforhodamine B assay, OVCAR-3; type: cell-based; details: Homo sapiens, 120 h, 5 days culture, SRB assay, read-out: Cell Line GI50 Range OVCAR-3
Protocol: as §1, §2, §3

[5] = system: Colon tumor initiating cells (TICs), 12 colon; assay: Colon tumor-initiating cell growth inhibition (Alamar Blue); type: cell-based; details: 216 h, 9 days, read-out: GI50 range 12 colon
Source text: (§4) Materials and Methods: Non-tissue or tissure cultured treated T-75 flask and 96-well plates were purchased from VWR. Vitamin B-27 supplement, MEM NEAA (minimum essential medium non essential amino acids), sodium pyruvate, L-glutamine, N2 supplement, penicillin-streptomycin and fungizone/amphotericin B were obtained from Invitrogen. Lipid mixture, heparin and EGF were purchased from Sigma; bFGF from BD Biosciences. Colon tumor initiating cells (TICs) were routinely maintained using non-tissue cultured treated T-75 flasks in DMEM:F12 medium containing 0.2XB-27 supplement, 4 ug/ml heparin, 1XMEM NEAA, 1× sodium pyruvate, 1 mM glutamine, 10 pg/ul bFGF, 20 pg/ul EGF, 1×N2 supplement, lipid mixture, penicillin-streptomycin and fungizone/amphotericin B. Ovarian TICs were routinely maintained using tissue cultured treated T-75 flasks in DMEM:F12 medium containing 1XB-27 supplement, 4 ug/ml heparin, 20 pg/ul bFGF, 20 pg/ul EGF and penicillin-streptomycin.
(§5) Compounds described herein were dissolved in DMSO and further diluted in cell culture medium for GI50 determination. Colon TICs were trypsinized and seeded into non-tissue cultured treated 96-well plates with 4,000 cells/well. After 24 h, compound was added into the cell culture at different concentrations, and the final concentration of DMSO was adjusted to 0.1%. Cells were then cultured at 37° C. for 9 days. Ovarian TICs were trypsinized and seeded into tissue cultured treated 96-well plates with 1,000 cells/well. After 24 h, compound was added into the cell culture at different concentrations, and the final concentration of DMSO was adjusted to 0.1%. Cells were then cultured at 37° C. for 6 days. Cell viability was assessed by Alamar Blue assay: 10 ul of Alamar Blue was added into each well. After 4 hours incubation at 37° C., fluorescence was recorded at excitation 544 and emission 590. GI50 (Growth inhibition) was calculated using GraphPad Prism 4.0 software.

[6] = system: Ovarian TICs, 2393A ovarian; assay: Ovarian tumor-initiating cell growth inhibition (Alamar Blue); type: cell-based; details: 144 h, 6 days, read-out: GI50 range 2393A ovarian
Source text: as §4, §5

[7] = system: PA-1 ovarian cancer cells; assay: Cell growth inhibition, Sulforhodamine B assay, PA-1; type: cell-based; details: 120 h, 5 days culture, SRB assay, read-out: Cell Line GI50 Range PA-1
Protocol: as §1, §2, §3

T3 sequence (Q96GD4 whole entry): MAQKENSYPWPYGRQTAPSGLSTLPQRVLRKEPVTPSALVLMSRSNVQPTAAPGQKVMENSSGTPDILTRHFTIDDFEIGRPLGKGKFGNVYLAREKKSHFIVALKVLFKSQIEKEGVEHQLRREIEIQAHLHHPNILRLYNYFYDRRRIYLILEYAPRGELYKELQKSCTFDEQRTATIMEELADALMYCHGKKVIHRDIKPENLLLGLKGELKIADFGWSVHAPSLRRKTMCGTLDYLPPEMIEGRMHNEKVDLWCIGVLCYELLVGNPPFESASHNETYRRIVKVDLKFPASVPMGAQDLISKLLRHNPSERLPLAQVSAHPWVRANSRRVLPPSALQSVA

Compound	IC50 (human TTK) [µM]	IC50 (human PLK4) [µM]	IC50 (Aurora B) [µM]	GI50 [1] [µM]	GI50 [2] [µM]	GI50 [3] [µM]	GI50 (HT29 colon cancer cells) [µM]	GI50 [4] [µM]	GI50 [5] [µM]	GI50 [6] [µM]	GI50 [7] [µM]
O=C(Nc1ccc2[nH]nc(-c3ccc(N4CCOCC4)cc3)c2c1)C(c1ccsc1)N1CCCC1 (centres unmarked) [Example A4, N-(3-(4-morpholinophenyl)-1H-indazol-5-yl)-2-(pyrrolidin-1-yl)-2-(thiophen-3-yl)acetamide]	≤ 5	≤ 5	≤ 5	≤ 5	≤ 5	≤ 5	≤ 5	5 to 20	≤ 5	≤ 5	
O=C(NC(c1ccccc1)C1CC1)c1ccc2[nH]nc(-c3ccc(N4CCOCC4)cc3)c2c1 (centres unmarked) [Example A12, N-(cyclopropyl(phenyl)methyl)-3-(4-morpholinophenyl)-1H-indazole-5-carboxamide]	≤ 5	≤ 5	≤ 5		≤ 5	≤ 5			≤ 5	≤ 5	
CN1CCC(Nc2ccc(-c3n[nH]c4ccc(NC(=O)C(c5ccsc5)N5CCCC5)cc34)cc2)CC1 (centres unmarked) [Example A25]	≤ 5	≤ 5	≤ 5	≤ 5	≤ 5	≤ 5	≤ 5	≤ 5	≤ 5	≤ 5	
CO[C@@H](C(=O)Nc1ccc2[nH]nc(-c3ccc(OC4CCN(C)CC4)cc3)c2c1)c1ccccc1 [Example A27, (R)-2-methoxy-N-(3-(4-((1-methylpiperidin-4-yl)oxy)phenyl)-1H-indazol-5-yl)-2-phenylacetamide]	≤ 5	≤ 5	≤ 5	5 to 20	≤ 5	≤ 5	≤ 5	5 to 20	≤ 5	≤ 5	
O=C(Nc1ccc2[nH]nc(-c3ccc(OC4CCOCC4)cc3)c2c1)C(c1ccsc1)N1CCCC1 (centres unmarked) [Example A29, 2-(pyrrolidin-1-yl)-N-(3-(4-((tetrahydro-2H-pyran-4-yl)oxy)phenyl)-1H-indazol-5-yl)-2-(thiophen-3-yl)acetamide]	≤ 5	≤ 5	≤ 5	5 to 20	≤ 5	≤ 5	≤ 5	5 to 20	≤ 5	≤ 5	
C[C@H]1CCCN1[C@H](C(=O)Nc1ccc2[nH]nc(-c3ccc(OC4CCN(C)CC4)cc3)c2c1)c1ccsc1 [Example A41, (S)—N-(3-(4-((1-methylpiperidin-4-yl)oxy)phenyl)-1H-indazol-5-yl)-2-((S)-2-methylpyrrolidin-1-yl)-2-(thiophen-3-yl)acetamide]	≤ 5	≤ 5	≤ 5		≤ 5	≤ 5	≤ 5	≤ 5	≤ 5	≤ 5	
CN1CCC(Oc2ccc(-c3n[nH]c4ccc(NC(=O)C(c5ccccc5)C5CCCC5)cc34)cc2)CC1 (centres unmarked) [Example A148, 2-cyclopentyl-N-(3-(4-((1-methylpiperidin-4-yl)oxy)phenyl)-1H-indazol-5-yl)-2-phenylacetamide]	≤ 5	≤ 5	≤ 5	≤ 5	≤ 5	≤ 5	≤ 5	≤ 5			≤ 5
CCC(NC(=O)c1ccc2[nH]nc(-c3ccc(OC4CCN(CCOC)CC4)cc3)c2c1)c1ccccc1 (centres unmarked) [Example A153, 3-(4-((1-(2-methoxyethyl)piperidin-4-yl)oxy)phenyl)-N-(1-phenylpropyl)-1H-indazole-5-carboxamide]	≤ 5	≤ 5	≤ 5	≤ 5	≤ 5	≤ 5	≤ 5	≤ 5			≤ 5
COCCN1CCC(Oc2ccc(-c3n[nH]c4ccc(C(=O)NC(c5ccsc5)C5CCCC5)cc34)cc2)CC1 (centres unmarked) [Example A155, N-(cyclopentyl(thiophen-3-yl)methyl)-3-(4-((1-(2-methoxyethyl)piperidin-4-yl)oxy)phenyl)-1H-indazole-5-carboxamide]	≤ 5	≤ 5	≤ 5	≤ 5	≤ 5	≤ 5	≤ 5	≤ 5			≤ 5
CN(C)C(=O)CN1CCC(Oc2ccc(-c3n[nH]c4ccc(C(=O)NC(c5ccccc5)C5CC5)cc34)cc2)CC1 (centres unmarked) [Example A158, N-(cyclopropyl(phenyl)methyl)-3-(4-((1-(2-(dimethylamino)-2-oxoethyl)piperidin-4-yl)oxy)phenyl)-1H-indazole-5-carboxamide]	≤ 5	≤ 5	≤ 5	≤ 5	≤ 5	≤ 5	≤ 5	≤ 5			≤ 5
CN1CCC(Oc2ccc(-c3n[nH]c4ccc(C(=O)NC(c5ccccc5)C5CCCC5)cc34)cc2)CC1 (centres unmarked) [Example A159, N-(cyclopentyl(phenyl)methyl)-3-(4-((1-methylpiperidin-4-yl)oxy)phenyl)-1H-indazole-5-carboxamide]	≤ 5	≤ 5	≤ 5	≤ 5	≤ 5	≤ 5	≤ 5	≤ 5			≤ 5
COCCN1CCC(Oc2ccc(-c3n[nH]c4ccc(C(=O)NC(c5ccccc5)C5CCCC5)cc34)cc2)CC1 (centres unmarked) [Example A161, N-(cyclopentyl(phenyl)methyl)-3-(4-((1-(2-methoxyethyl)piperidin-4-yl)oxy)phenyl)-1H-indazole-5-carboxamide]	≤ 5	≤ 5	≤ 5	≤ 5	≤ 5	≤ 5	≤ 5	≤ 5			≤ 5
